# Measurements: PubChem BioAssay AID180 (DTP/NCI, 2004)
# Several values for one entry are separate records, joined by “and”; a condition that tells them apart may be missing. Identical values can stand only once.
# Test system: BDF1 mice, Adenocarcinoma 755 s.c., tumor weight T/C
# Experiment: NCI In Vivo Anticancer Drug Screen. Data for tumor model Adenocarcinoma 755 (subcutaneous) in B6D2F1 (BDF1) mice
# Conditions: endpoint: mean tumor weight, higher = larger tumour
# Experimental: The antitumor activity of compounds was measured in mice bearing transplantable tumors. Survival or tumor size were measured and the results are expressed as the measurement made in the treated group (T) divided by the measurement made in the vehicle treated control group (C). The tumor model used in this assay is Adenocarcinoma 755 (subcutaneous) in B6D2F1 (BDF1) mice
# [1] = dose: 75.0 mg/kg/injection, schedule: Q01DX011 (ip), vehicle: carboxymethylcellulose (CMC)
# [2] = dose: 125.0 mg/kg/injection, schedule: Q01DX011 (ip), vehicle: saline
# [3] = dose: 250.0 mg/kg/injection, schedule: Q01DX011 (ip), vehicle: saline
# [4] = dose: 25.0 mg/kg/injection, schedule: Q01DX011 (ip), vehicle: carboxymethylcellulose (CMC)
structure (smiles),measurement,setting,value
O=S(=O)(Nc1ccccc1)c1ccc(C2CC3(Cl)C(Cl)=C(Cl)C2(Cl)C3(Cl)Cl)cc1 (stereo not given),T/C,"dose: 28.12 mg/kg/injection, schedule: Q01DX011 (ip), vehicle: methylcellulose (MC)",90 % of control and 109 % of control
same,T/C,"dose: 112.5 mg/kg/injection, schedule: Q01DX011 (ip), vehicle: methylcellulose (MC)",95 % of control and 107 % of control
same,T/C,"dose: 225.0 mg/kg/injection, schedule: Q01DX011 (ip), vehicle: methylcellulose (MC)",69 % of control
Brc1ccc(CSc2ncnc3nc[nH]c23)cc1,T/C,"dose: 43.75 mg/kg/injection, schedule: Q01DX011 (ip), vehicle: methylcellulose (MC)",70 % of control
same,T/C,"dose: 87.5 mg/kg/injection, schedule: Q01DX011 (ip), vehicle: methylcellulose (MC)",28 % of control
same,T/C,"dose: 175.0 mg/kg/injection, schedule: Q01DX011 (ip), vehicle: methylcellulose (MC)",10 % of control
same,T/C,"dose: 350.0 mg/kg/injection, schedule: Q01DX011 (ip), vehicle: methylcellulose (MC)",1 % of control
Cc1cc(C)c(/C=N/Nc2nc3c(c(=O)n(C)c(=O)n3C)n2C)c(C)c1,T/C,"dose: 30.0 mg/kg/injection, schedule: Q01DX011 (ip), vehicle: carboxymethylcellulose (CMC)",68 % of control
same,T/C,"dose: 60.0 mg/kg/injection, schedule: Q01DX011 (ip), vehicle: carboxymethylcellulose (CMC)",106 % of control
O=C(Nc1ccc(NC(=O)Nc2cccc(C3=NCCN3)c2)cc1)Nc1cccc(C2=NCCN2)c1,T/C,"dose: 18.75 mg/kg/injection, schedule: Q01DX011 (ip), vehicle: carboxymethylcellulose (CMC)",85 % of control
same,T/C,"dose: 37.5 mg/kg/injection, schedule: Q01DX011 (ip), vehicle: carboxymethylcellulose (CMC)",73 % of control
same,T/C,[1],73 % of control
same,T/C,"dose: 150.0 mg/kg/injection, schedule: Q01DX011 (ip), vehicle: carboxymethylcellulose (CMC)",112 % of control
CN(CC#N)/N=N/c1nc[nH]c1C(N)=O,T/C,"dose: 37.0 mg/kg/injection, schedule: Q01DX011 (ip), vehicle: carboxymethylcellulose (CMC)",108 % of control
same,T/C,[1],73 % of control
Nc1nc(SCc2ccccc2)c2ncn(Cc3ccccc3)c2n1,T/C,"dose: 62.5 mg/kg/injection, schedule: Q01DX011 (ip), vehicle: methylcellulose (MC)",28 % of control
same,T/C,"dose: 125.0 mg/kg/injection, schedule: Q01DX011 (ip), vehicle: methylcellulose (MC)",14 % of control
same,T/C,"dose: 250.0 mg/kg/injection, schedule: Q01DX011 (ip), vehicle: methylcellulose (MC)",7 % of control
COc1cc(C(=O)O)nc(N)n1,T/C,"dose: 15.0 mg/kg/injection, schedule: Q01DX011 (ip), vehicle: saline",111 % of control
same,T/C,[2],100 % of control
same,T/C,[3],161 % of control
Nc1n[se]nc1C(=O)O,T/C,"dose: 0.75 mg/kg/injection, schedule: Q01DX011 (ip), vehicle: carboxymethylcellulose (CMC)",82 % of control
FC(F)(F)c1nc(=S)c2[nH]cnc2[nH]1,T/C,"dose: 6.0 mg/kg/injection, schedule: Q01DX011 (ip), vehicle: carboxymethylcellulose (CMC)",70 % of control
same,T/C,[4],81 % of control
same,T/C,"dose: 100.0 mg/kg/injection, schedule: Q01DX011 (ip), vehicle: carboxymethylcellulose (CMC)",89 % of control
O=C(Nc1ccc(C2=NCCS2)cc1)c1ccc(C(=O)Nc2ccc(C3=NCCS3)cc2)cc1,T/C,"dose: 30.0 mg/kg/injection, schedule: Q01DX011 (ip), vehicle: methylcellulose (MC)",118 % of control
same,T/C,"dose: 120.0 mg/kg/injection, schedule: Q01DX011 (ip), vehicle: methylcellulose (MC)",121 % of control
COc1cc(-c2ccc(Nc3ccccc3C(=O)O)c(OC)c2)ccc1N,T/C,"dose: 10.0 mg/kg/injection, schedule: Q01DX011 (ip), vehicle: saline",108 % of control
same,T/C,"dose: 20.0 mg/kg/injection, schedule: Q01DX011 (ip), vehicle: saline",36 % of control
same,T/C,"dose: 40.0 mg/kg/injection, schedule: Q01DX011 (ip), vehicle: saline",39 % of control
same,T/C,"dose: 80.0 mg/kg/injection, schedule: Q01DX011 (ip), vehicle: saline",17 % of control
CC(=O)Nc1c(Cl)c(Cl)c2c(c1Cl)Cc1cc(F)ccc1-2,T/C,"dose: 125.0 mg/kg/injection, schedule: Q01DX011 (ip), vehicle: carboxymethylcellulose (CMC)",91 % of control
same,T/C,[2],29 % of control
same,T/C,"dose: 250.0 mg/kg/injection, schedule: Q01DX011 (ip), vehicle: carboxymethylcellulose (CMC)",41 % of control
same,T/C,[3],29 % of control
same,T/C,"dose: 500.0 mg/kg/injection, schedule: Q01DX011 (ip), vehicle: carboxymethylcellulose (CMC)",42 % of control
same,T/C,"dose: 500.0 mg/kg/injection, schedule: Q01DX011 (ip), vehicle: saline",17 % of control
same,T/C,"dose: 1000.0 mg/kg/injection, schedule: Q01DX011 (ip), vehicle: carboxymethylcellulose (CMC)",25 % of control
same,T/C,"dose: 1000.0 mg/kg/injection, schedule: Q01DX011 (ip), vehicle: saline",14 % of control
Nc1nc(=S)c2ncn(C3OC(CO)C(O)C3O)c2[nH]1 (stereo not given),T/C,"dose: 0.03 mg/kg/injection, schedule: Q01DX011 (ip), vehicle: carboxymethylcellulose (CMC)",43 % of control
same,T/C,"dose: 0.07 mg/kg/injection, schedule: Q01DX011 (ip), vehicle: carboxymethylcellulose (CMC)",90 % of control
same,T/C,"dose: 0.13 mg/kg/injection, schedule: Q01DX011 (ip), vehicle: carboxymethylcellulose (CMC)",81 % of control
same,T/C,"dose: 0.5 mg/kg/injection, schedule: Q01DX011 (ip), vehicle: carboxymethylcellulose (CMC)",29 % of control and 37 % of control
same,T/C,"dose: 1.0 mg/kg/injection, schedule: Q01DX011 (ip), vehicle: carboxymethylcellulose (CMC)",6 % of control and 7 % of control
same,T/C,"dose: 1.5 mg/kg/injection, schedule: Q01DX011 (ip), vehicle: carboxymethylcellulose (CMC)",4 % of control
same,T/C,"dose: 1.5 mg/kg/injection, schedule: Q01DX011 (ip), vehicle: methylcellulose (MC)",2 % of control
same,T/C,"dose: 2.0 mg/kg/injection, schedule: Q01DX011 (ip), vehicle: carboxymethylcellulose (CMC)",4 % of control
same,T/C,"dose: 3.0 mg/kg/injection, schedule: Q01DX011 (ip), vehicle: carboxymethylcellulose (CMC)",3 % of control
same,T/C,"dose: 3.0 mg/kg/injection, schedule: Q01DX011 (ip), vehicle: methylcellulose (MC)",1 % of control
CCC(=O)NC,T/C,"dose: 45.0 mg/kg/injection, schedule: Q01DX011 (ip), vehicle: saline",107 % of control
same,T/C,"dose: 175.0 mg/kg/injection, schedule: Q01DX011 (ip), vehicle: saline",81 % of control
same,T/C,"dose: 350.0 mg/kg/injection, schedule: Q01DX011 (ip), vehicle: saline",118 % of control
same,T/C,"dose: 625.0 mg/kg/injection, schedule: Q#A X022 (ip), vehicle: other",6 % of control
same,T/C,"dose: 1000.0 mg/kg/injection, schedule: Q01DX011 (ip), vehicle: other",11 % of control
same,T/C,"dose: 1500.0 mg/kg/injection, schedule: Q01DX011 (ip), vehicle: other",6 % of control
same,T/C,"dose: 1560.0 mg/kg/injection, schedule: Q01DX011 (ip), vehicle: other",49 % of control
same,T/C,"dose: 1750.0 mg/kg/injection, schedule: Q01DX011 (ip), vehicle: other",36 % of control
Cn1cnc2c(ncn2C2CC(O)C(CO)O2)c1=N (stereo not given),T/C,"dose: 30.0 mg/kg/injection, schedule: Q01DX011 (ip), vehicle: saline",83 % of control
same,T/C,"dose: 60.0 mg/kg/injection, schedule: Q01DX011 (ip), vehicle: saline",100 % of control
same,T/C,"dose: 120.0 mg/kg/injection, schedule: Q01DX011 (ip), vehicle: saline",80 % of control
same,T/C,"dose: 240.0 mg/kg/injection, schedule: Q01DX011 (ip), vehicle: saline",108 % of control
O=C(OCC1OC(n2cnc3c(=S)nc[nH]c32)C(OC(=O)c2ccc([N+](=O)[O-])cc2)C1OC(=O)c1ccc([N+](=O)[O-])cc1)c1ccc([N+](=O)[O-])cc1 (stereo not given),T/C,"dose: 6.25 mg/kg/injection, schedule: Q01DX011 (ip), vehicle: other",70 % of control
same,T/C,"dose: 12.5 mg/kg/injection, schedule: Q01DX011 (ip), vehicle: other",85 % of control
same,T/C,"dose: 25.0 mg/kg/injection, schedule: Q01DX011 (ip), vehicle: other",58 % of control and 68 % of control
same,T/C,"dose: 50.0 mg/kg/injection, schedule: Q01DX011 (ip), vehicle: other",52 % of control and 76 % of control
same,T/C,"dose: 75.0 mg/kg/injection, schedule: Q01DX011 (ip), vehicle: other",8 % of control
same,T/C,"dose: 150.0 mg/kg/injection, schedule: Q01DX011 (ip), vehicle: other",1 % of control
same,T/C,"dose: 200.0 mg/kg/injection, schedule: Q01DX011 (ip), vehicle: other",1 % of control and 6 % of control
same,T/C,"dose: 250.0 mg/kg/injection, schedule: Q01DX011 (ip), vehicle: other",3 % of control
Oc1ccc2ccccc2c1N=Nc1ccccc1,T/C,"dose: 50.0 mg/kg/injection, schedule: Q01DX011 (ip), vehicle: saline",69 % of control
same,T/C,"dose: 100.0 mg/kg/injection, schedule: Q01DX011 (ip), vehicle: saline",55 % of control
same,T/C,"dose: 200.0 mg/kg/injection, schedule: Q01DX011 (ip), vehicle: saline",50 % of control
Nc1nc(Oc2ccc(Cl)cc2)c2n[nH]nc2n1,T/C,"dose: 200.0 mg/kg/injection, schedule: Q01DX011 (ip), vehicle: carboxymethylcellulose (CMC)",66 % of control
Nc1nc(=S)c2ncn(C3OC(COC(=O)c4ccc([N+](=O)[O-])cc4)C(OC(=O)c4ccc([N+](=O)[O-])cc4)C3OC(=O)c3ccc([N+](=O)[O-])cc3)c2[nH]1 (stereo not given),T/C,"dose: 12.5 mg/kg/injection, schedule: Q01DX011 (ip), vehicle: carboxymethylcellulose (CMC)",34 % of control
same,T/C,[4],20 % of control
